# Laboratory results taken from the supplement of paper PMC10307832.
# Key:
# Test in all cases: relative viability (nuclei count vs DMSO), 5 days (fraction); higher = more cells survive
# [1] = compound: CCN(CCO)CCCC(C)Nc1ccnc2cc(Cl)ccc12 [Hydroxychloroquine] + Nc1nc2[nH]cc(CCc3ccc(C(=O)N[C@@H](CCC(=O)O)C(=O)O)cc3)c2c(=O)[nH]1 [Pemetrexed] (partner 0.2 µM)
# Outline: (§1)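 Values are medians from duplicate plates. Each reflects relative viability, defined as the nuclei count of treated wells over that of vehicle wells. Lung cancer cell lines in 1536-well plates were pin-tool dosed one day after seeding with one drug alone or with a fixed anchor-drug dose plus five library-drug doses (not always all listed) in √10 steps, then fixed, stained and imaged at 4× after 5 days.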
# [2] = compound: CCN(CCO)CCCC(C)Nc1ccnc2cc(Cl)ccc12 [Hydroxychloroquine] + O=C(CCCCCCC(=O)Nc1ccccc1)NO [Vorinostat] (partner 1 µM)
# Outline: as §1
# [3] = compound: CCN(CCO)CCCC(C)Nc1ccnc2cc(Cl)ccc12 [Hydroxychloroquine] + CC1(C)CCC(c2ccc(Cl)cc2)=C(CN2CCN(c3ccc(C(=O)NS(=O)(=O)c4ccc(N[C@H](CCN5CCOCC5)CSc5ccccc5)c(S(=O)(=O)C(F)(F)F)c4)cc3)CC2)C1 [Navitoclax] (partner 0.5 µM)
# Outline: as §1
# [4] = compound: CCN(CCO)CCCC(C)Nc1ccnc2cc(Cl)ccc12 [Hydroxychloroquine] + C[C@]1(O)C[C@@H](c2nc(-c3ccc4ccc(-c5ccccc5)nc4c3)c3c(N)nccn32)C1 [Linsitinib] (partner 1 µM)
# Outline: as §1
cell line,measurement,setting,value
PC-14,relative viability,[1]; first compound 0.5 µM,0.149
same,relative viability,[1]; first compound 1.581 µM,0.145
same,relative viability,[1]; first compound 5 µM,0.118
same,relative viability,[1]; first compound 15.81 µM,0.142
same,relative viability,[1]; first compound 50 µM,0.129
same,relative viability,[2]; first compound 0.5 µM,0.672
same,relative viability,[2]; first compound 1.581 µM,0.583
same,relative viability,[2]; first compound 5 µM,0.753
same,relative viability,[2]; first compound 15.81 µM,0.687
same,relative viability,[2]; first compound 50 µM,0.781
same,relative viability,[3]; first compound 0.5 µM,1.03
same,relative viability,[3]; first compound 1.581 µM,1.07
same,relative viability,[3]; first compound 5 µM,0.979
same,relative viability,[3]; first compound 15.81 µM,1.01
same,relative viability,[3]; first compound 50 µM,0.962
same,relative viability,[4]; first compound 0.5 µM,0.889
same,relative viability,[4]; first compound 1.581 µM,1.07
same,relative viability,[4]; first compound 5 µM,0.995
same,relative viability,[4]; first compound 15.81 µM,1.03
same,relative viability,[4]; first compound 50 µM,0.97
RERF-LC-KJ,relative viability,[1]; first compound 0.5 µM,0.448
same,relative viability,[1]; first compound 1.581 µM,0.466
same,relative viability,[1]; first compound 5 µM,0.457
same,relative viability,[1]; first compound 15.81 µM,0.489
same,relative viability,[1]; first compound 50 µM,0.467
same,relative viability,[2]; first compound 0.5 µM,0.696
same,relative viability,[2]; first compound 1.581 µM,0.607
same,relative viability,[2]; first compound 5 µM,0.631
same,relative viability,[2]; first compound 15.81 µM,0.692
same,relative viability,[2]; first compound 50 µM,0.677
same,relative viability,[3]; first compound 0.5 µM,0.894
same,relative viability,[3]; first compound 1.581 µM,0.983
same,relative viability,[3]; first compound 5 µM,0.93
same,relative viability,[3]; first compound 15.81 µM,0.934
same,relative viability,[3]; first compound 50 µM,0.749
same,relative viability,[4]; first compound 0.5 µM,0.896
same,relative viability,[4]; first compound 1.581 µM,0.885
same,relative viability,[4]; first compound 5 µM,0.911
same,relative viability,[4]; first compound 15.81 µM,0.854
same,relative viability,[4]; first compound 50 µM,0.822
SK-LU-1,relative viability,[1]; first compound 0.5 µM,1.02
same,relative viability,[1]; first compound 1.581 µM,0.876
same,relative viability,[1]; first compound 5 µM,0.953
same,relative viability,[1]; first compound 15.81 µM,1.11
same,relative viability,[1]; first compound 50 µM,1.03
same,relative viability,[2]; first compound 0.5 µM,0.779
same,relative viability,[2]; first compound 1.581 µM,0.719
same,relative viability,[2]; first compound 5 µM,0.804
same,relative viability,[2]; first compound 15.81 µM,0.799
same,relative viability,[2]; first compound 50 µM,0.643
same,relative viability,[3]; first compound 0.5 µM,0.747
same,relative viability,[3]; first compound 1.581 µM,0.96
same,relative viability,[3]; first compound 5 µM,0.851
same,relative viability,[3]; first compound 15.81 µM,1.21
same,relative viability,[3]; first compound 50 µM,0.658
same,relative viability,[4]; first compound 0.5 µM,1.11
same,relative viability,[4]; first compound 1.581 µM,1.09
same,relative viability,[4]; first compound 5 µM,1.04
same,relative viability,[4]; first compound 15.81 µM,1.19
same,relative viability,[4]; first compound 50 µM,0.982
SK-MES-1,relative viability,[1]; first compound 0.5 µM,1.03
same,relative viability,[1]; first compound 1.581 µM,0.73
same,relative viability,[1]; first compound 5 µM,1.02
same,relative viability,[1]; first compound 15.81 µM,1.05
same,relative viability,[1]; first compound 50 µM,0.945
same,relative viability,[2]; first compound 0.5 µM,1.33
same,relative viability,[2]; first compound 1.581 µM,0.882
same,relative viability,[2]; first compound 5 µM,1.2
same,relative viability,[2]; first compound 15.81 µM,1.23
same,relative viability,[2]; first compound 50 µM,1.27
same,relative viability,[3]; first compound 0.5 µM,1.45
same,relative viability,[3]; first compound 1.581 µM,1.21
same,relative viability,[3]; first compound 5 µM,1.25
same,relative viability,[3]; first compound 15.81 µM,1.27
same,relative viability,[3]; first compound 50 µM,1.17
same,relative viability,[4]; first compound 0.5 µM,1.1
same,relative viability,[4]; first compound 1.581 µM,1.09
same,relative viability,[4]; first compound 5 µM,1.12
same,relative viability,[4]; first compound 15.81 µM,1.16
same,relative viability,[4]; first compound 50 µM,1.03
SW 1573,relative viability,[1]; first compound 0.5 µM,0.892
same,relative viability,[1]; first compound 1.581 µM,0.686
same,relative viability,[1]; first compound 5 µM,0.794
same,relative viability,[1]; first compound 15.81 µM,0.86
same,relative viability,[1]; first compound 50 µM,0.758
same,relative viability,[2]; first compound 0.5 µM,0.689
same,relative viability,[2]; first compound 1.581 µM,0.627
same,relative viability,[2]; first compound 5 µM,0.878
same,relative viability,[2]; first compound 15.81 µM,0.734
same,relative viability,[2]; first compound 50 µM,0.951
same,relative viability,[3]; first compound 0.5 µM,0.971
same,relative viability,[3]; first compound 1.581 µM,0.884
same,relative viability,[3]; first compound 5 µM,1.01
same,relative viability,[3]; first compound 15.81 µM,1.03
same,relative viability,[3]; first compound 50 µM,0.972
same,relative viability,[4]; first compound 0.5 µM,0.698
same,relative viability,[4]; first compound 1.581 µM,0.625
same,relative viability,[4]; first compound 5 µM,0.67
same,relative viability,[4]; first compound 15.81 µM,0.74
same,relative viability,[4]; first compound 50 µM,0.674
UMC-11,relative viability,[1]; first compound 0.5 µM,0.751
same,relative viability,[1]; first compound 1.581 µM,0.751
same,relative viability,[1]; first compound 5 µM,0.826
same,relative viability,[1]; first compound 15.81 µM,0.976
same,relative viability,[1]; first compound 50 µM,0.825
same,relative viability,[2]; first compound 0.5 µM,0.4
same,relative viability,[2]; first compound 1.581 µM,0.314
same,relative viability,[2]; first compound 5 µM,0.387
same,relative viability,[2]; first compound 15.81 µM,0.393
same,relative viability,[2]; first compound 50 µM,0.457
same,relative viability,[3]; first compound 0.5 µM,0.307
same,relative viability,[3]; first compound 1.581 µM,0.288
same,relative viability,[3]; first compound 5 µM,0.299
same,relative viability,[3]; first compound 15.81 µM,0.322
same,relative viability,[3]; first compound 50 µM,0.327
same,relative viability,[4]; first compound 0.5 µM,0.928
same,relative viability,[4]; first compound 1.581 µM,1.02
same,relative viability,[4]; first compound 5 µM,0.986
same,relative viability,[4]; first compound 15.81 µM,1.1
same,relative viability,[4]; first compound 50 µM,1.22
